From patent US20250312469A1 (CANGET BIOTEKPHARMA, priority 2024, published 2025)
Where “and” joins values, the source holds several entries; their conditions need not be identical. Equal entries are not always repeated.

Tests used:
[1] = tested on: other 109 ubiquitin-related proteins/enzymes; assay: ProtoArray protein microarray probed with 3H-FL118; type: binding, human
Experimental: The flask was then immersed in silicone oil bath at 180° C.-190° C. for 6 hours. The tritium gas was removed. The reaction mixture was dissolved in 1 mL of DMSO and back-exchanged 10× with 50% ethanol. Injected directly to CapCeLL PAK C-18 column (4.6×250 mm), mobile phase 30% CH3CN, 0.1% TFA, flow 1 mL/min, U.V. =200 nm, r.t. =40 min. After purification, total activity was 5 mCi (solid) with a specificity of 5.6 Ci/mmol at a radiochemical purity of >97% for ^3H-FL118. […] The flask was then immersed in silicone oil bath at 190° C. for 24 h. The tritium gas was removed. The reaction mixture was dissolved in 1 mL of DMSO and back-exchanged 10× with 50% ethanol and injected directly to CapCeLL Pak C-18 column (4.6×250 mm), mobile phase 30% CH3CN, 0.1% TFA, […], U.V. =200 nm, r.t. =40 min. After purification total activity was 5 mCi (solid) with a specificity of 16.5 Ci/mmol at a radiochemical purity of ≥81% for ^3H-FL118.
Use of ^3H-FL118 as a radioactive probe to search FL118-binding proteins through screening of human protein microarray (ProtoArray R with 9,400 human proteins, Invitrogen): The study process includes the following steps.
1. Blocking the ProtoArray: (i) Immediately place the mailer containing the Human Protein Microarray v5.0 at 4° C. upon removal from storage at −20° C. and equilibrate the mailer at 4° C. for at least 15 minutes prior to use. […]

[2] = tested on: TA98; assay: Ames Bacterial Reverse Mutation Assay
Experimental: The Ames Bacterial Reverse Mutation (AB™) used five bacterial tester strains (TA97a, TA98, TA100, TA1535, WP2-uvrA).
Tester strains were added to flasks containing nutrient broth and incubated at 37+2° C. overnight. The flasks were removed from the overnight incubation and the final concentration was determined (the OD was measured and determined whether growth was suitable for testing). Top agar was melted, and 2.0 mL was dispensed into heated culture tubes. The S9 mix (metabolic activation) was prepared and stored on ice. […] Each culture tube was vortexed and immediately poured onto the labeled minimal glucose agar plates. All plates were inverted and placed into a 37±1° C. incubator for 48-72 hours. The plates were counted via an automated colony counter or by hand and the background lawn was microscopically evaluated for any signs of toxicity. Genotypic control plates were prepared for each tester strain and incubated for 24-72 hours at 37±1° C.

CCC1(O)C(=O)OCc2c1cc1n(c2=O)Cc2cc3cc4c(cc3nc2-1)OCO4 (stereo not drawn) [FL118]
binding to other ubiquitin-related proteins [1]: did not bind | bacterial strain mutation [2]: does not induce | mean revertant colonies over negative control ([2]; +/− S9): less than 2 fold | Background Lawn Code ([2]; TA98, 0.010 μM +S9): 1 | Colony Counts Average ([2]; TA98, 0.010 μM +S9): 38 | Colony Counts Replicate 1-3 ([2]; TA98, 0.010 μM +S9): 32 and 37 and 45 | Background Lawn Code ([2]; TA98, 0.010 μM −S9): 1 | Colony Counts Average ([2]; TA98, 0.010 μM −S9): 38 | Colony Counts Replicate 1-3 ([2]; TA98, 0.010 μM −S9): 29 and 53 and 32 | Background Lawn Code ([2]; TA98, 0.10 μM +S9): 1 | Colony Counts Average ([2]; TA98, 0.10 μM +S9): 44 | Colony Counts Replicate 1-3 ([2]; TA98, 0.10 μM +S9): 45 and 41 and 46 | Background Lawn Code ([2]; TA98, 0.10 μM −S9): 1 | Colony Counts Average ([2]; TA98, 0.10 μM −S9): 24 | Colony Counts Replicate 1-3 ([2]; TA98, 0.10 μM −S9): 36 and 20 and 15 | Background Lawn Code ([2]; TA98, 1.0 μM +S9): 1 | Colony Counts Average ([2]; TA98, 1.0 μM +S9): 44 | Colony Counts Replicate 1-3 ([2]; TA98, 1.0 μM +S9): 35 and 45 and 52 | Background Lawn Code ([2]; TA98, 1.0 μM −S9): 1 | Colony Counts Average ([2]; TA98, 1.0 μM −S9): 23 | Colony Counts Replicate 1-3 ([2]; TA98, 1.0 μM −S9): 24 and 26 and 19
